Data taken from US20230089867A1, “CYCLIC PENTAMER COMPOUNDS AS PROPROTEIN CONVERTASE SUBTILISIN/KEXIN TYPE 9 (PCSK9) INHIBITORS FOR THE TREATMENT OF METABOLIC DISORDER” (Novartis AG, priority 2018, published 2023).

Molecular target: human PCSK9 (Homo sapiens, UniProt Q8NBP7)
Assay: PCSK9 ligand binding TR-FRET assay (interference with binding of human PCSK9 to human LDLR)
Settings: for Max % inhibition: PCSK9 FRET assay, efficacy (Amax), 100% = 1 uM unlabeled human PCSK9, 0% = DMSO; for IC50: TR-FRET, human PCSK9 Alexa Fluor 647 / human LDLR extracellular domain-Europium Kryptate, read-out: PCSK9 FRET Assay IC50
How it was run: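 Threefold compound dilutions were pre-incubated 30 min with PCSK9, after which 4 nM Europium Kryptate-tagged human LDLR ectodomain was added for a further 2 h.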

human PCSK9, sequence (Q8NBP7 153-692): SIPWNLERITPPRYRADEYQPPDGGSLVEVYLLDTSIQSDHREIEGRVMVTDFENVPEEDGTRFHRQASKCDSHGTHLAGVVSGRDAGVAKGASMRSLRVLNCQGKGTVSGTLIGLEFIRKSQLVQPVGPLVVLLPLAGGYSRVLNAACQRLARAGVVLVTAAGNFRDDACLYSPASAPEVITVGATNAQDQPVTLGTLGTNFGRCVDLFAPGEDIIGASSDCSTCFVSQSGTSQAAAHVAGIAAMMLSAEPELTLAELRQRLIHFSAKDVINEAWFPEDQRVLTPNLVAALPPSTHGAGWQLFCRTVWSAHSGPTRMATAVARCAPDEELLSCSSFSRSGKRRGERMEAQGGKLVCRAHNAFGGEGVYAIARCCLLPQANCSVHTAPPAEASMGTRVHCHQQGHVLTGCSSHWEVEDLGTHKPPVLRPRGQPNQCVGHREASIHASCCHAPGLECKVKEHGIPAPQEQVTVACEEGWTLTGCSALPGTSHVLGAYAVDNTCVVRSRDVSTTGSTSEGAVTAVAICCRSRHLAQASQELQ
human PCSK9, sequence (Q8NBP7 31-152 partner limits assumed): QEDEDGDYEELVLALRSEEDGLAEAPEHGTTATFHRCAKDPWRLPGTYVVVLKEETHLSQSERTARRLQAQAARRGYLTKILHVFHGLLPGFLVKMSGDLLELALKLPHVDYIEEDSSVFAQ

| Structure (SMILES) | Max % inhibition [%] | IC50 [nM] |
| --- | --- | --- |
| COC[C@@H]1NC(=O)[C@H](C)N(Cc2ccc(Cl)cc2Oc2ccc(-c3cnc(CN4CCCC4)n3C)cc2)C(=O)C[C@@H](Cc2ccccc2)C(=O)N(C)[C@@H](C)CNC(=O)C[C@H](Cc2ccc(Cl)cc2)N(C)C1=O [Compound 138, (2S,5S,8S,13S,16R)-16-benzyl-1-(4-chloro-2-(4-(1-methyl-2-(pyrrolidin-1-ylmethyl)-1H-imidazol-5-yl)phenoxy)benzyl)-8-(4-chlorobenzyl)-5-(methoxymethyl)-2,7,13,14-tetramethyl-1,4,7,11,14-pentaazacyclooctadecane-3,6,10,15,18-pentaone] | 98.02 | 1.5 |
| COC[C@@H]1NC(=O)[C@H](C)N(Cc2ccc(Cl)cc2Oc2ccc(-c3cnc(CN4CCCC4)n3C)cc2)C(=O)C[C@@H](Cc2ccc(F)cc2)C(=O)N(C)[C@@H](C)CNC(=O)C[C@H](Cc2ccc(Cl)cc2)N(C)C1=O [Compound 108, (2S,5S,8S,13S,16R)-1-(4-chloro-2-(4-(1-methyl-2-(pyrrolidin-1-ylmethyl)-1H-imidazol-5-yl)phenoxy)benzyl)-8-(4-chlorobenzyl)-16-(4-fluorobenzyl)-5-(methoxymethyl)-2,7,13,14-tetramethyl-1,4,7,11,14-pentaazacyclooctadecane-3,6,10,15,18-pentaone] | 99.73 | 0.7 |
| COC[C@@H]1NC(=O)C(CCN)N(Cc2ccc(Cl)cc2Oc2ccc(-c3cnc(CN(C)C)n3C)cc2)C(=O)C[C@@H](Cc2ccccc2)C(=O)N(C)[C@H]2CCCC[C@@H]2NC(=O)C[C@H](Cc2ccc(Cl)cc2)N(C)C1=O (single isomer, unassigned) [Compound 204] | 83.07 | 286 |
| COC[C@@H]1NC(=O)[C@H](C)N(Cc2ccc(Cl)cc2Oc2ccc(-n3cnc(CN(C)C)c3C)cc2)C(=O)C[C@@H](Cc2ccccn2)C(=O)N(C)[C@H]2CCCC[C@@H]2NC(=O)C[C@H](Cc2ccc(Cl)cc2)N(C)C1=O [Compound 105, (4S,7S,10S,14R,16aS,20aS)-11-(4-chloro-2-(4-(4-((dimethylamino)methyl)-5-methyl-1H-imidazol-1-yl)phenoxy)benzyl)-4-(4-chlorobenzyl)-7-(methoxymethyl)-5,10,16-trimethyl-14-(pyridin-2-ylmethyl)hexadecahydrobenzo[l][1,4,7,11,14]pentaazacyclooctadecine-2,6,9,12,15(3H)-pentaone] | 104.44 | 1 |
| COC[C@@H]1NC(=O)[C@H](C)N(Cc2ccc(Cl)cc2Oc2ccc(-c3nnc4n3CCN(C(=O)[C@@H]3CCNC3)C4)cc2)C(=O)C[C@@H](Cc2ccccc2)C(=O)N(C)[C@@H](C)CNC(=O)C[C@H](Cc2ccc(Cl)cc2)N(C)C1=O [Compound 129, (2S,5S,8S,13S,16R)-16-benzyl-1-(4-chloro-2-(4-(7-((R)-pyrrolidine-3-carbonyl)-5,6,7,8-tetrahydro-[1,2,4]triazolo[4,3-a]pyrazin-3-yl)phenoxy)benzyl)-8-(4-chlorobenzyl)-5-(methoxymethyl)-2,7,13,14-tetramethyl-1,4,7,11,14-pentaazacyclooctadecane-3,6,10,15,18-pentaone] | 94.48 | 6.3 |
| COC[C@@H]1NC(=O)[C@H](CCF)N(Cc2ccc(Cl)cc2Oc2ccc(-c3cnc(CN4CCCC4)n3C)cc2)C(=O)C[C@@H](Cc2ccccc2)C(=O)N(C)[C@@H](C)CNC(=O)C[C@H](Cc2ccc(Cl)cc2)N(C)C1=O [Compound 54, (2S,5S,8S,13S,16R)-16-benzyl-1-(4-chloro-2-(4-(1-methyl-2-(pyrrolidin-1-ylmethyl)-1H-imidazol-5-yl)phenoxy)benzyl)-8-(4-chlorobenzyl)-2-(2-fluoroethyl)-5-(methoxymethyl)-7,13,14-trimethyl-1,4,7,11,14-pentaazacyclooctadecane-3,6,10,15,18-pentaone] | 92.54 | 4.6 |

Second part, the compound after the results:

| Max % inhibition [%] | IC50 [nM] | Structure (SMILES) |
| --- | --- | --- |
| 97.18 | 1.3 | COC[C@@H]1NC(=O)[C@H](CC(=O)N(C)C)N(Cc2ccc(Cl)cc2Oc2ccc(-c3cnc(CN(C)C)n3C)cc2)C(=O)C[C@@H](Cc2ccccc2)C(=O)N(C)[C@H]2CCCC[C@@H]2NC(=O)C[C@H](Cc2ccc(Cl)cc2)N(C)C1=O [Compound 269, 2-((4S,7S,10S,14R,16aS,20aS)-14-benzyl-11-(4-chloro-2-(4-(2-((dimethylamino)methyl)-1-methyl-1H-imidazol-5-yl)phenoxy)benzyl)-4-(4-chlorobenzyl)-7-(methoxymethyl)-5,16-dimethyl-2,6,9,12,15-pentaoxodocosahydrobenzo[l][1,4,7,11,14]pentaazacyclooctadecin-10-yl)-N,N-dimethylacetamide] |
| 50.23 | 21.3 | C[C@H]1CNC(=O)C[C@H](Cc2ccc(Cl)cc2)N(C)C(=O)[C@H](CCF)NC(=O)[C@H](C)N(Cc2ccc(Cl)cc2Oc2ccc(-c3cnc(CN4CCCC4)n3C)cc2)C(=O)C[C@@H](Cc2ccccc2)C(=O)N1C [Compound 257, (2S,5S,8S,13S,16R)-16-benzyl-1-(4-chloro-2-(4-(1-methyl-2-(pyrrolidin-1-ylmethyl)-1H-imidazol-5-yl)phenoxy)benzyl)-8-(4-chlorobenzyl)-5-(2-fluoroethyl)-2,7,13,14-tetramethyl-1,4,7,11,14-pentaazacyclooctadecane-3,6,10,15,18-pentaone] |
| 105.97 | 1 | COCCN(CCOC)C(=O)C[C@H]1C(=O)N[C@@H](COC)C(=O)N(C)[C@@H](Cc2ccc(Cl)cc2)CC(=O)N[C@H]2CCCC[C@@H]2N(C)C(=O)[C@H](Cc2ccccc2)CC(=O)N1Cc1ccc(Cl)cc1Oc1ccc(-c2cnc(CN(C)C)n2C)cc1 [Compound 218, 2-((4S,7S,10S,14R,16aS,20aS)-14-benzyl-11-(4-chloro-2-(4-(2-((dimethylamino)methyl)-1-methyl-1H-imidazol-5-yl)phenoxy)benzyl)-4-(4-chlorobenzyl)-7-(methoxymethyl)-5,16-dimethyl-2,6,9,12,15-pentaoxodocosahydrobenzo[l][1,4,7,11,14]pentaazacyclooctadecin-10-yl)-N ,N-bis(2-methoxyethyl)acetamide] |
| 91.51 | 3.5 | C[C@H]1CNC(=O)C[C@H](Cc2ccc(Cl)cc2)N(C)C(=O)[C@H](CC(=O)O)NC(=O)[C@H](C)N(Cc2ccc(Cl)cc2Oc2ccc(-c3cnc(CN(C)C)n3C)cc2)C(=O)C[C@@H](Cc2ccccc2)C(=O)N1C [Compound 213, 2-((2S,5S,8S,13S,16R)-16-benzyl-1-(4-chloro-2-(4-(2-((dimethylamino)methyl)-1-methyl-1H-imidazol-5-yl)phenoxy)benzyl)-8-(4-chlorobenzyl)-2,7,13,14-tetramethyl-3,6,10,15,18-pentaoxo-1,4,7,11,14-pentaazacyclooctadecan-5-yl)acetic acid] |
| 80.79 | 22.9 | CCNC(=O)c1ncn(-c2ccc(Oc3cc(Cl)ccc3CN3C(=O)C[C@@H](Cc4ccccc4)C(=O)N(C)[C@@H](C)CNC(=O)C[C@H](Cc4ccc(Cl)cc4)N(C)C(=O)[C@H](COC)NC(=O)[C@@H]3C)cc2)c1C [Compound 244, 1-(4-(2-(((2S,5S,8S,13S,16R)-16-benzyl-8-(4-chlorobenzyl)-5-(methoxymethyl)-2,7,13,14-tetramethyl-3,6,10,15,18-pentaoxo-1,4,7,11,14-pentaazacyclooctadecan-1-yl)methyl)-5-chlorophenoxy)phenyl)-N-ethyl-5-methyl-1H-imidazole-4-carboxamide] |
